Results reported in ChEMBL document CHEMBL1145728, “Structure--activity relationships of the peptide deformylase inhibitor BB-3497: modification of the P2' and P3' side chains” (Bioorg Med Chem Lett, 2003).
pIC50: −log10 of the molar value. Converted amounts (≈) assume the structure as drawn.

Experiments:
[1] = system: Staphylococcus capitis; assay: Antibacterial activity against Staphylococcus capitis.; format: functional
[2] = system: Escherichia coli; assay: Antibacterial activity against Escherichia coli.; format: functional
[3] = target: T1, Peptide deformylase (Escherichia coli, UniProt Q9JN24); assay: Inhibition concentration against Escherichia coli peptide deformylase.
T1 sequence (Q9JN24 whole entry): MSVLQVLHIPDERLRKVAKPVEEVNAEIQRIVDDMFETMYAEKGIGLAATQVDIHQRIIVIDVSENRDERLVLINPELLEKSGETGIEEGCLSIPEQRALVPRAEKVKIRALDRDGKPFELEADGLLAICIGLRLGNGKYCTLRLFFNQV

[4] = Staphylococcus capitis, read-out: MIC
[5] = Escherichia coli, read-out: MIC

SMILES | MIC [1, 4] [µM] | MIC [2, 5] [µM] | pIC50 [3] | MIC [1] [µM] | MIC [2] [µM]
CCCC[C@H](CN(O)C=O)C(=O)N1Cc2ccccc2C[C@H]1C(=O)N(C)C | > 200 | > 200 |  |  | 
CCCC[C@H](CN(O)C=O)C(=O)N[C@@H](CO)C(=O)N(C)C | 50 (≈ 15.2 µg/mL) | 100 (≈ 30.3 µg/mL) |  |  | 
CCCC[C@H](CN(O)C=O)C(=O)N[C@H](C(=O)O)C(C)(C)C | > 200 | > 200 | 7.10 |  | 
CCCC[C@H](CN(O)C=O)C(=O)N[C@@H](Cc1ccc(O)cc1)C(=O)N(C)C | > 200 | > 200 | 6.52 |  | 
CCCC[C@H](CN(O)C=O)C(=O)N[C@@H](C)C(=O)N(C)C | 100 (≈ 28.7 µg/mL) | 25 (≈ 7.18 µg/mL) | 7.40 |  | 
CCCC[C@H](CN(O)C=O)C(=O)N[C@@H](CSCc1ccccc1)C(=O)N(C)C | 12.5 (≈ 5.12 µg/mL) | 200 (≈ 81.9 µg/mL) | 7.15 |  | 
CCCC[C@H](CN(O)C=O)C(=O)N[C@H](C(=O)N1CCC(Cc2ccccc2)CC1)C(C)(C)C | 6.25 (≈ 2.87 µg/mL) | 200 (≈ 91.9 µg/mL) | 7.70 |  | 
CCCC[C@H](CN(O)C=O)C(=O)NCC(=O)N(C)C | > 200 | 50 (≈ 13.7 µg/mL) |  |  | 
CCCC[C@H](CN(O)C=O)C(=O)N[C@H](C(=O)N1CCC(C(=O)OCC)CC1)C(C)(C)C | 25 (≈ 11 µg/mL) | > 200 | 8.00 |  | 
CCCC[C@H](CN(O)C=O)C(=O)N[C@H](C(=O)N(C)C)C(C)(C)SC | 25 (≈ 9.04 µg/mL) | 25 (≈ 9.04 µg/mL) |  |  | 
CCCC[C@H](CN(O)C=O)C(=O)N[C@H](C(=O)N1CCCc2ccccc21)C(C)(C)C | 50 (≈ 20.9 µg/mL) | 50 (≈ 20.9 µg/mL) | 8.05 |  | 
CCCC[C@H](CN(O)C=O)C(=O)N[C@H](C(=O)N1CCCC1)C(C)(C)C | 25 (≈ 8.89 µg/mL) | 25 (≈ 8.89 µg/mL) |  |  | 
CCCC[C@H](CN(O)C=O)C(=O)N1CCC[C@H]1C(=O)N(C)C | 50 (≈ 15.7 µg/mL) | > 200 | 6.40 |  | 
CCCC[C@H](CN(O)C=O)C(=O)N[C@@H](CC(C)C)C(=O)N(C)C | 50 (≈ 16.5 µg/mL) | 50 (≈ 16.5 µg/mL) | 7.70 |  | 
CCCC[C@H](CN(O)C=O)C(=O)N[C@@H](CCCCN)C(=O)N(C)C | > 200 | > 200 | 6.70 |  | 
CCCC[C@H](CN(O)C=O)C(=O)N[C@@H](CCC(=O)OCc1ccccc1)C(=O)N(C)C | 200 (≈ 87.1 µg/mL) | > 200 | 7.70 |  | 
CCCC[C@H](CN(O)C=O)C(=O)N[C@H](C(C)=O)C(C)(C)C | 100 (≈ 30 µg/mL) | 25 (≈ 7.51 µg/mL) | 7.70 |  | 
CCCC[C@H](CN(O)C=O)C(=O)N[C@@H](CC1CCCCC1)C(=O)N(C)C | 100 (≈ 37 µg/mL) | 100 (≈ 37 µg/mL) | 7.52 |  | 
CCCC[C@H](CN(O)C=O)C(=O)N[C@H](C(=O)N(C)C)C(C)C | 25 (≈ 7.89 µg/mL) | 25 (≈ 7.89 µg/mL) | 7.70 |  | 

SMILES | MIC [1, 4] [µM] | MIC [2, 5] [µM] | pIC50 [3] | MIC [1] [µM] | MIC [2] [µM]
CCCC[C@H](CN(O)C=O)C(=O)N[C@H](C(=O)N1CCCC2CCCCC21)C(C)(C)C (some centres undefined) | 50 (≈ 21.2 µg/mL) | > 200 |  |  | 
CCCC[C@H](CN(O)C=O)C(=O)N[C@H](C(=O)N(C)C)C(C)(C)O | 25 (≈ 8.29 µg/mL) | 12.5 (≈ 4.14 µg/mL) |  |  | 
CCCC[C@H](CN(O)C=O)C(=O)N[C@H](C(=O)OC)C(C)(C)C | 200 (≈ 63.3 µg/mL) | 50 (≈ 15.8 µg/mL) | 7.52 |  | 
CCCC[C@H](CN(O)C=O)C(=O)N[C@H](C(=O)N1CCN(C)CC1)C(C)(C)C | 50 (≈ 19.2 µg/mL) | 25 (≈ 9.61 µg/mL) | 7.30 |  | 
CCCC[C@H](CN(O)C=O)C(=O)N[C@H](C(=O)N(C)C)C(C)CC (some centres undefined) | 12.5 (≈ 4.12 µg/mL) | 25 (≈ 8.24 µg/mL) | 7.70 |  | 
CCCC[C@H](CN(O)C=O)C(=O)N[C@H](C(=O)N1CCC(C)CC1)C(C)(C)C | 50 (≈ 19.2 µg/mL) | 100 (≈ 38.4 µg/mL) | 8.00 |  | 
CCCC[C@H](CN(O)C=O)C(=O)N[C@H](C(=O)N1CCOCC1)C(C)(C)C | 25 (≈ 9.29 µg/mL) | 25 (≈ 9.29 µg/mL) | 7.70 |  | 
CCCC[C@H](CN(O)C=O)C(=O)N[C@@H](CCCCN(C)C)C(=O)N(C)C | > 200 | > 200 | 6.52 |  | 
CCCC[C@H](CN(O)C=O)C(=O)N[C@@H](CCCNC(=N)N)C(=O)N(C)C | 50 (≈ 18.6 µg/mL) | > 200 | 7.70 |  | 
CCCC[C@H](CN(O)C=O)C(=O)N[C@@H](Cc1ccccc1)C(=O)N(C)C | 50 (≈ 18.2 µg/mL) | 100 (≈ 36.3 µg/mL) |  |  | 
CCCC[C@H](CN(O)C=O)C(=O)N[C@H](C(=O)N(C)C)C(C)(C)OC | 100 (≈ 34.5 µg/mL) | 25 (≈ 8.64 µg/mL) |  |  | 
CCCC[C@H](CN(O)C=O)C(=O)N[C@H](C(=O)N(CCc1ccccc1)Cc1ccccc1)C(C)(C)C | 100 (≈ 49.6 µg/mL) | > 200 | 7.05 |  | 
CCCC[C@H](CN(O)C=O)C(=O)N[C@H](C(=O)N(C)C1CCCCC1)C(C)(C)C | 100 (≈ 39.8 µg/mL) | > 200 |  |  | 
CCCC[C@H](CN(O)C=O)C(=O)N[C@H](C(=O)N1CCC(C(C)=O)CC1)C(C)(C)C | 25 (≈ 10.3 µg/mL) | 100 (≈ 41.2 µg/mL) | 8.00 |  | 
CCCC[C@H](CN(O)C=O)C(=O)N[C@@H](Cc1ccc(Cl)cc1)C(=O)N(C)C | 100 (≈ 39.8 µg/mL) | > 200 | 7.30 |  | 
CCCC[C@H](CN(O)C=O)C(=O)N[C@@H](CC(=O)OCc1ccccc1)C(=O)N(C)C | 25 (≈ 10.5 µg/mL) | > 200 | 7.00 |  | 
CCCC[C@H](CN(O)C=O)C(=O)N[C@H](C(=O)N(C)C)C(C)(C)C (stereo in doubt; form 1) |  |  | 8.15 |  | 
CCCC[C@H](CN(O)C=O)C(=O)N[C@H](C(=O)N(C)C)C(C)(C)C (stereo in doubt; form 2) |  |  | 7.40 | >200 | 100 (≈ 32.9 µg/mL)
